Usually Ki stands for the equilibrium dissociation constant of an inhibitor or competing ligand from its target.

Among the data in patent US20160326142A1, “PYRAZOLE CARBOXAMIDE COMPOUNDS, COMPOSITIONS AND METHODS OF USE” (Genentech, Inc., priority 2012, published 2016) are Ki values, retold here.

For this test, the target named is T1, ITK (Homo sapiens, UniProt Q08881).
T1 construct: purchased Invitrogen PV3875
T1 sequence (Q08881 1-620): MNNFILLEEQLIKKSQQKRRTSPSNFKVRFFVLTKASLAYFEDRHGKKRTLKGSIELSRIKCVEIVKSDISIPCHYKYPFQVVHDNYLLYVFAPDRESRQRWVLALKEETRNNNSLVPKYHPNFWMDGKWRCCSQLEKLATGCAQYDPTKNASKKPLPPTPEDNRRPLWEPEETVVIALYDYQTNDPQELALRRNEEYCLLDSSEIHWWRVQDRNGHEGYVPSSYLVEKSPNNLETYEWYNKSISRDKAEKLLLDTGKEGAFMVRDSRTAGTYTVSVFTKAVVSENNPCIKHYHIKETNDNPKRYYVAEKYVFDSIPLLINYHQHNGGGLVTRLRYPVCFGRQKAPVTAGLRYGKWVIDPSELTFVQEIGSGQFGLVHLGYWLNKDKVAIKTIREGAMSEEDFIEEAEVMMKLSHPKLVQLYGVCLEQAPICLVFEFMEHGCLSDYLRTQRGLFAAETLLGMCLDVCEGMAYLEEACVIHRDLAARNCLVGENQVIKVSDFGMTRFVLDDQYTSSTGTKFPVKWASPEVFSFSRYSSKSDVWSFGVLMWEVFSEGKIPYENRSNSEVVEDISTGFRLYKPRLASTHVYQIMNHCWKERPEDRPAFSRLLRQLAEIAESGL
As to the kind of experiment: ITK enzyme assay (Caliper or LCMS peptide phosphorylation). Type of test: biochemical. The settings on record: purified ITK (Invitrogen PV3875), 20 μM ATP, Ki by Morrison's quadratic equation. In short, it runs like this: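 Purified human ITK peptide phosphorylation, quenched with EDTA (50 mM final) for Caliper LabChip separation or TCA (5% v/v final) for UPLC-MS/MS MRM quantification. Ki derived via Morrison tight-binding equation, corrected for competitive inhibition using ATP concentration relative to Km,app.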
`CC1(C)CCc2c(C(=O)Nc3cnn(C(c4ccccc4)C4CN(CCF)C4)c3)n[nH]c2C1` (single isomer, unassigned) [Example 75a, N-(1-((1-(2-fluoroethyl)azetidin-3-yl)(phenyl)methyl)-1H-pyrazol-4-yl)-6,6-dimethyl-4,5,6,7-tetrahydro-1H-indazole-3-carboxamide] displayed a Ki of 2 nM. This lies in the single-digit nanomolar range.
The value for `CC1(C)CCc2c(C(=O)Nc3cnn(C(CN4CCOCC4=O)c4ccccc4)c3)n[nH]c2C1` (single isomer, unassigned) [Example 77a, 6,6-dimethyl-N-(1-(2-(3-oxomorpholino)-1-phenylethyl)-1H-pyrazol-4-yl)-4,5,6,7-tetrahydro-1H-indazole-3-carboxamide] was 20 nM; that for `CC1(C)CCc2c(C(=O)Nc3cnn(C(CN4CCOCC4=O)c4ccccc4)c3)n[nH]c2C1` (single isomer, unassigned) [Example 77b, 6,6-dimethyl-N-(1-(2-(3-oxomorpholino)-1-phenylethyl)-1H-pyrazol-4-yl)-4,5,6,7-tetrahydro-1H-indazole-3-carboxamide] was 2 nM; that for `CC(C1CCOCC1)n1cc(NC(=O)c2n[nH]c3c2CCC(C)(C)C3)cn1` (single isomer, unassigned) [Example 78a, 6,6-dimethyl-N-(1-(1-(tetrahydro-2H-pyran-4-yl)ethyl)-1H-pyrazol-4-yl)-4,5,6,7-tetrahydro-1H-indazole-3-carboxamide] was 26 nM.
The compound `CC(C1CCOCC1)n1cc(NC(=O)c2n[nH]c3c2CCC(C)(C)C3)cn1` (single isomer, unassigned) [Example 78b, 6,6-dimethyl-N-(1-(1-(tetrahydro-2H-pyran-4-yl)ethyl)-1H-pyrazol-4-yl)-4,5,6,7-tetrahydro-1H-indazole-3-carboxamide] returned a Ki of 6 nM. This Ki lies about 4.3-fold lower than the previous one.
The value for `O=C(Nc1cnn(Cc2ccccc2)c1)c1n[nH]c2c1CC1(CCOC1)C2` (single isomer, unassigned) [Example 79a, N-(1-benzyl-1H-pyrazol-4-yl)-4,4′,5′,6-tetrahydro-1H,2′H-spiro[cyclopenta[c]pyrazole-5,3′-furan]-3-carboxamide] was 46 nM; that for `O=C(Nc1cnn(Cc2ccccc2)c1)c1n[nH]c2c1CC1(CCOC1)C2` (single isomer, unassigned) [Example 79b, N-(1-benzyl-1H-pyrazol-4-yl)-4,4′,5′,6-tetrahydro-1H,2′H-spiro[cyclopenta[c]pyrazole-5,3′-furan]-3-carboxamide] was 95 nM.
The same measure for `CC1(C)CCc2c(C(=O)Nc3cnn(C(CCC#N)c4cccnc4)c3)n[nH]c2C1` (single isomer, unassigned) [Example 80a, N-(1-(3-cyano-1-(pyridin-3-yl)propyl)-1H-pyrazol-4-yl)-6,6-dimethyl-4,5,6,7-tetrahydro-1H-indazole-3-carboxamide]: 2 nM; for `CC1(C)CCc2c(C(=O)Nc3cnn(C(CCC#N)c4cccnc4)c3)n[nH]c2C1` (single isomer, unassigned) [Example 80b, N-(1-(3-cyano-1-(pyridin-3-yl)propyl)-1H-pyrazol-4-yl)-6,6-dimethyl-4,5,6,7-tetrahydro-1H-indazole-3-carboxamide]: 2 nM; for `CC1(C)CCc2c(C(=O)Nc3cnn(C(CO)c4cccnc4)c3)n[nH]c2C1` (single isomer, unassigned) [Example 81a, N-(1-(2-hydroxy-1-(pyridin-3-yl)ethyl)-1H-pyrazol-4-yl)-6,6-dimethyl-4,5,6,7-tetrahydro-1H-indazole-3-carboxamide]: 17 nM.
`CC1(C)CCc2c(C(=O)Nc3cnn(C(CO)c4cccnc4)c3)n[nH]c2C1` (single isomer, unassigned) [Example 81b, N-(1-(2-hydroxy-1-(pyridin-3-yl)ethyl)-1H-pyrazol-4-yl)-6,6-dimethyl-4,5,6,7-tetrahydro-1H-indazole-3-carboxamide] displayed an inhibitory constant (Ki) of 3 nM.
The same measure for `CC(c1cscn1)n1cc(NC(=O)c2n[nH]c3c2CCC(C)(C)C3)cn1` (single isomer, unassigned) [Example 84a, 6,6-dimethyl-N-(1-(1-(thiazol-4-yl)ethyl)-1H-pyrazol-4-yl)-4,5,6,7-tetrahydro-1H-indazole-3-carboxamide]: 46 nM; for `CC(c1cscn1)n1cc(NC(=O)c2n[nH]c3c2CCC(C)(C)C3)cn1` (single isomer, unassigned) [Example 84b, 6,6-dimethyl-N-(1-(1-(thiazol-4-yl)ethyl)-1H-pyrazol-4-yl)-4,5,6,7-tetrahydro-1H-indazole-3-carboxamide]: 13 nM; for `CC1(C)CCc2c(C(=O)Nc3cnn(C(c4nccs4)C4CCSCC4)c3)n[nH]c2C1` (single isomer, unassigned) [Example 85a, 6,6-dimethyl-N-(1-((tetrahydro-2H-thiopyran-4-yl)(thiazol-2-yl)methyl)-1H-pyrazol-4-yl)-4,5,6,7-tetrahydro-1H-indazole-3-carboxamide]: 0.6 nM.
The value for `CC1(C)CCc2c(C(=O)Nc3cnn(C(c4nccs4)C4CCSCC4)c3)n[nH]c2C1` (single isomer, unassigned) [Example 85b, 6,6-dimethyl-N-(1-((tetrahydro-2H-thiopyran-4-yl)(thiazol-2-yl)methyl)-1H-pyrazol-4-yl)-4,5,6,7-tetrahydro-1H-indazole-3-carboxamide] was 0.9 nM.
The value for `CC1(C)CCc2c(C(=O)Nc3cnn(C(c4nccs4)C4CCS(=O)(=O)CC4)c3)n[nH]c2C1` (single isomer, unassigned) [Example 87a, N-(1-((1,1-dioxidotetrahydro-2H-thiopyran-4-yl)(thiazol-2-yl)methyl)-1H-pyrazol-4-yl)-6,6-dimethyl-4,5,6,7-tetrahydro-1H-indazole-3-carboxamide] was 0.4 nM; that for `CC1(C)CCc2c(C(=O)Nc3cnn(C(c4nccs4)C4CCS(=O)(=O)CC4)c3)n[nH]c2C1` (single isomer, unassigned) [Example 87b, N-(1-((1,1-dioxidotetrahydro-2H-thiopyran-4-yl)(thiazol-2-yl)methyl)-1H-pyrazol-4-yl)-6,6-dimethyl-4,5,6,7-tetrahydro-1H-indazole-3-carboxamide] was 1 nM.
On to `CC1(C)CCc2c(C(=O)Nc3cnn(C(c4cccnc4)C4CCOCC4)c3)n[nH]c2C1` (single isomer, unassigned) [Example 88a, 6,6-dimethyl-N-(1-(pyridin-3-yl(tetrahydro-2H-pyran-4-yl)methyl)-1H-pyrazol-4-yl)-4,5,6,7-tetrahydro-1H-indazole-3-carboxamide], for which affinity was put at a Ki of 0.1 nM.
The same measure for `CC1(C)CCc2c(C(=O)Nc3cnn(C(c4cccnc4)C4CCOCC4)c3)n[nH]c2C1` (single isomer, unassigned) [Example 88b, 6,6-dimethyl-N-(1-(pyridin-3-yl(tetrahydro-2H-pyran-4-yl)methyl)-1H-pyrazol-4-yl)-4,5,6,7-tetrahydro-1H-indazole-3-carboxamide]: 0.7 nM; for `CC1(C)CCc2c(C(=O)Nc3cnn(C(c4ccccc4)C4CS(=O)(=O)C4)c3)n[nH]c2C1` (single isomer, unassigned) [Example 89a]: 0.2 nM.
`CC1(C)CCc2c(C(=O)Nc3cnn(C(c4ccccc4)C4CS(=O)(=O)C4)c3)n[nH]c2C1` (single isomer, unassigned) [Example 89b] registered a Ki of 4 nM.
The value for `CC1(C)Cc2[nH]nc(C(=O)Nc3cnn(Cc4ccccc4)c3)c2CC1C#N` (single isomer, unassigned) [Example 90a, N-(1-benzyl-1H-pyrazol-4-yl)-5-cyano-6,6-dimethyl-4,5,6,7-tetrahydro-1H-indazole-3-carboxamide] was 570 nM; that for `CC1(C)Cc2[nH]nc(C(=O)Nc3cnn(Cc4ccccc4)c3)c2CC1C#N` (single isomer, unassigned) [Example 90b, N-(1-benzyl-1H-pyrazol-4-yl)-5-cyano-6,6-dimethyl-4,5,6,7-tetrahydro-1H-indazole-3-carboxamide] was 10 nM.
The same measure for `CC(c1cnn(C)c1)n1cc(NC(=O)c2n[nH]c3c2CCC(C)(C)C3)cn1` (single isomer, unassigned) [Example 91a, 6,6-dimethyl-N-(1-(1-(1-methyl-1H-pyrazol-4-yl)ethyl)-1H-pyrazol-4-yl)-4,5,6,7-tetrahydro-1H-indazole-3-carboxamide]: 11 nM; for `CC(c1cnn(C)c1)n1cc(NC(=O)c2n[nH]c3c2CCC(C)(C)C3)cn1` (single isomer, unassigned) [Example 91b, 6,6-dimethyl-N-(1-(1-(1-methyl-1H-pyrazol-4-yl)ethyl)-1H-pyrazol-4-yl)-4,5,6,7-tetrahydro-1H-indazole-3-carboxamide]: 19 nM; for `CC(c1nccs1)n1cc(NC(=O)c2n[nH]c3c2CCC(C)(C)C3)cn1` (single isomer, unassigned) [Example 92a, 6,6-dimethyl-N-(1-(1-(thiazol-2-yl)ethyl)-1H-pyrazol-4-yl)-4,5,6,7-tetrahydro-1H-indazole-3-carboxamide]: 7 nM.
